From PubChem BioAssay AID1259411 (Chemical Carcinogenesis Research Information System (CCRIS), 2018)
Active and inactive are the calls of the source. No rule for the calls is given here.

System: rodent carcinogenicity bioassays, tumor incidence
Assay: CCRIS carcinogenicity studies
Summary of the method: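 Archive of carcinogenicity, mutagenicity, tumor promotion and tumor inhibition results drawn from journals, NCI reports and other sources, expert-reviewed; covers 1985-2011 and is no longer updated.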

**Q.** How did the carcinogen call (Species: HAMSTER, Strain/Sex: SYRIAN/FEMALE, Route: GAVAGE, Dose: 0, 12 MG/ML ((0.2 ML OF A SOLUTION IN ETHYL ACETATE/CORN OIL (1:2)) 1/WK FOR 30 WK (STUDY DURATION: LIFE SPAN), Tumor Site: Type of Lesion: FORESTOMACH: SQUAMOUS CELL CARCINOMA OR ADENOMA) turn out when `O=NN1CCOC1=O` was run?
**A.** Its carcinogen call is “active; positive”.

**Q.** And the carcinogen call (Species: RAT, Strain/Sex: F344/FEMALE, Route: INTRAVESICULAR, Dose: 0, 2.4 MG 2/WK FOR 8 WK (STUDY DURATION: LIFETIME), Tumor Site: Type of Lesion: BLADDER: TUMOR)?
**A.** Its carcinogen call is “active; positive”.

**Q.** `CN(CC(O)CO)N=O` (configuration not stated) was tested. Which carcinogen call (Species: HAMSTER, Strain/Sex: SYRIAN/FEMALE, Route: GAVAGE, Dose: 0, 2.4 MG IN 0.2 ML OF WATER 1/WK FOR 41 WK FOR A TOTAL DOSE OF 98 MG (STUDY DURATION: 45 WK), Tumor Site: Type of Lesion: NASAL MUCOSA: CARCINOMA, ADENOMA) did it give?
**A.** The carcinogen call was “active; positive”.

**Q.** For `O[C@@H]1C=CC=C[C@H]1O`, which carcinogen call (Species: MOUSE, Strain/Sex: SWISS/FEMALE, Route: INTRAPERITONEAL, Dose: 0, 10, 50 UMOL ADMINISTERED AS 3 UNEQUAL DOSES (1/7, 2/7, AND 4/7 OF THE TOTAL DOSE) OVER A 2-WK PERIOD (STUDY DURATION:, Dose: 0, 10, 50 UMOL ADMINISTERED AS 3 UNEQUAL DOSES (1/7, 2/7, AND 4/7 OF THE TOTAL DOSE) OVER A 2-WK PERIOD (STUDY DURATION:) is on record?
**A.** The carcinogen call was “inactive; negative”.

**Q.** And the carcinogen call (Species: MOUSE, Strain/Sex: SWISS/MALE, Route: INTRAPERITONEAL, Dose: 0, 10, 50 UMOL ADMINISTERED AS 3 UNEQUAL DOSES (1/7, 2/7, AND 4/7 OF THE TOTAL DOSE) OVER A 2-WK PERIOD (STUDY DURATION:, Dose: 0, 10, 50 UMOL ADMINISTERED AS 3 UNEQUAL DOSES (1/7, 2/7, AND 4/7 OF THE TOTAL DOSE) OVER A 2-WK PERIOD (STUDY DURATION:)?
**A.** The carcinogen call was “inactive; negative”.

**Q.** Which results are given for `CC(O)CCl` (configuration not stated)?
**A.** carcinogen call (Species: MOUSE, Strain/Sex: B6C3F1/FEMALE, Route: ORAL, Dose: 0, 250, 500, 1000 PPM IN DRINKING WATER FOR DURATION OF STUDY (STUDY DURATION: 2 YR), Dose: 0, 250, 500, 1000 PPM IN DRINKING WATER FOR DURATION OF STUDY (STUDY DURATION: 2 YR)): inactive; negative; carcinogen call (Species: MOUSE, Strain/Sex: B6C3F1/MALE, Route: ORAL, Dose: 0, 250, 500, 1000 PPM IN DRINKING WATER FOR DURATION OF STUDY (STUDY DURATION: 2 YR), Dose: 0, 250, 500, 1000 PPM IN DRINKING WATER FOR DURATION OF STUDY (STUDY DURATION: 2 YR)): inactive; negative; carcinogen call (Species: RAT, Strain/Sex: F344/FEMALE, Route: ORAL, Dose: 10, 150, 325, 650 PPM IN DRINKING WATER FOR DURATION OF STUDY (STUDY DURATION: 2 YR), Dose: 10, 150, 325, 650 PPM IN DRINKING WATER FOR DURATION OF STUDY (STUDY DURATION: 2 YR)): inactive; negative; carcinogen call (Species: RAT, Strain/Sex: F344/MALE, Route: ORAL, Dose: 0, 150, 325, 650 PPM IN DRINKING WATER FOR DURATION OF STUDY (STUDY DURATION: 2 YR), Dose: 0, 150, 325, 650 PPM IN DRINKING WATER FOR DURATION OF STUDY (STUDY DURATION: 2 YR)): inactive; negative

**Q.** What does the source list for `Cc1ccc(Nc2ccc(O)c3c2C(=O)c2ccccc2C3=O)cc1`?
**A.** carcinogen call (Species: MOUSE, Strain/Sex: SWISS-WEBSTER/FEMALE, Route: DERMAL, Dose: 0, 1% IN 0.1 ML 0.1% SODIUM LAURYL SULFATE 1/WK FOR 18 MO (STUDY DURATION: 18 MO)): inactive; negative; carcinogen call (Species: MOUSE, Strain/Sex: SWISS-WEBSTER/MALE, Route: DERMAL, Dose: 0, 1% IN 0.1 ML 0.1% SODIUM LAURYL SULFATE 1/WK FOR 18 MO (STUDY DURATION: 18 MO)): inactive; negative

**Q.** Which carcinogen call (Species: MOUSE, Strain/Sex: STRAIN-CS/FEMALE, Route: ORAL, Dose: 0.2% IN DIET FOR 19 MO, Tumor Site: Type of Lesion: LIVER: HEPATOCELLULAR CARCINOMA) does the source give for `Cc1cccc(Nc2cc(Cl)nc(SCC(=O)NCCO)n2)c1C` here?
**A.** The carcinogen call was “active; positive”.

**Q.** What about the carcinogen call (Species: RAT, Strain/Sex: F344/MALE, Route: ORAL, Dose: 0.05, 0.2% IN DIET FOR 19 MO (LOW DOSE) OR 16 MO (HIGH DOSE), Tumor Site: Type of Lesion: LIVER: HEPATOCELLULAR CARCINOMA) of the same compound?
**A.** The carcinogen call was “active; positive”.

**Q.** Which carcinogen call (Species: Mouse, Strain/Sex: B6C3F1 / Female (50/Group), Route: Oral, Dose: 0, 250, 500, 1,000 mg/l in drinking water for 105 wk, Dose: 0, 250, 500, 1,000 mg/l in drinking water for 105 wk, Tumor Site: Type of Lesion: Liver: hepatocellular neoplasms) does the source give for `O=C(O)C(Cl)Br` (configuration not stated) here?
**A.** The carcinogen call was “active; positive. authors describe as clear evidence”.

**Q.** What about the carcinogen call (Species: Mouse, Strain/Sex: B6C3F1 / Male (50/Group), Route: Oral, Dose: 0, 250, 500, 1,000 mg/l in drinking water for 105 wk, Dose: 0, 250, 500, 1,000 mg/l in drinking water for 105 wk, Tumor Site: Type of Lesion: Liver: hepatocellular neoplasms and hepatoblastoma) of the same compound?
**A.** Its carcinogen call is “active; positive. authors describe as clear evidence”.

**Q.** What about the carcinogen call (Species: Rat, Strain/Sex: F344/N / Female (50/Group), Route: Oral, Dose: 0, 250, 500, 1,000 mg/l in drinking water for 105 wk, Dose: 0, 250, 500, 1,000 mg/l in drinking water for 105 wk, Tumor Site: Type of Lesion: Large Intestine: adenoma, Mammary Gland: multiple fibroadenomas, Pancreatic Islet: adenoma (may have been related), Tumor Site: Type of Lesion: Large Intestine: adenoma, Mammary Gland: multiple fibroadenomas, Pancreatic Islet: adenoma (may have been related)) of the same compound?
**A.** Its carcinogen call is “active; positive (some of the p values do not reach significance.) authors describe as c”.

**Q.** And the carcinogen call (Species: Rat, Strain/Sex: F344/N / Male (50/Group), Route: Oral, Dose: 0, 250, 500, 1,000 mg/l in drinking water for 105 wk, Dose: 0, 250, 500, 1,000 mg/l in drinking water for 105 wk, Tumor Site: Type of Lesion: Mesothelium: malignant mesothelioma, Large Intestine: adenoma, Pancreatic Islet: adenoma (may have been related), Tumor Site: Type of Lesion: Mesothelium: malignant mesothelioma, Large Intestine: adenoma, Pancreatic Islet: adenoma (may have been related))?
**A.** Its carcinogen call is “active; positive. authors describe as clear evidence”.

**Q.** Which carcinogen call (Species: HAMSTER, Strain/Sex: SYRIAN/MALE, Route: INTRAGASTRIC, Dose: 0, 23 MG/ML IN 0.2 ML STERILIZED WATER 1/WK FOR 35 WK (TOTAL DOSE 161 MG) (STUDY DURATION: LIFESPAN), Tumor Site: Type of Lesion: LIVER: HEPATOCELLULAR CARCINOMA, ADENOMA, HEMANGIOSARCOMA, CHOLANGIOCARCINOMA) does the source give for `O=NN1CCOC1` here?
**A.** Its carcinogen call is “active; positive”.

**Q.** And the carcinogen call (Species: RAT, Strain/Sex: F344/FEMALE, Route: ORAL, Dose: 35 MG/L IN DRINKING WATER FOR 50 WK, Tumor Site: Type of Lesion: LIVER: HEPATOCELLULAR CARCINOMA, HEMANGIOENDOTHELIAL SARCOMA)?
**A.** The carcinogen call was “active; positive”.

**Q.** `c1ccc2n[nH]nc2c1` was tested. Which carcinogen call (Species: MOUSE, Strain/Sex: B6C3F1/FEMALE, Route: ORAL, Dose: 0, 11700, 23500 PPM IN DIET FOR 104 WK (STUDY DURATION: 106-109 WK), Dose: 0, 11700, 23500 PPM IN DIET FOR 104 WK (STUDY DURATION: 106-109 WK), Tumor Site: Type of Lesion: LUNG: ALVEOLAR/BRONCHIOLAR CARCINOMA) did it give?
**A.** Its carcinogen call is “equivocal”.

**Q.** And the carcinogen call (Species: MOUSE, Strain/Sex: B6C3F1/MALE, Route: ORAL, Dose: 0, 11700, 23500 PPM IN DIET FOR 104 WK (STUDY DURATION: 106-109 WK), Dose: 0, 11700, 23500 PPM IN DIET FOR 104 WK (STUDY DURATION: 106-109 WK))?
**A.** Its carcinogen call is “inactive; negative”.

**Q.** And the carcinogen call (Species: RAT, Strain/Sex: F344/FEMALE, Route: ORAL, Dose: 0, 6700, 12100 PPM IN DIET FOR 78 WK (STUDY DURATION: 105-106 WK), Dose: 0, 6700, 12100 PPM IN DIET FOR 78 WK (STUDY DURATION: 105-106 WK), Tumor Site: Type of Lesion: BRAIN: TUMOR)?
**A.** The carcinogen call was “equivocal”.

**Q.** What about the carcinogen call (Species: RAT, Strain/Sex: F344/MALE, Route: ORAL, Dose: 0, 6700, 12100 PPM IN DIET FOR 78 WK (STUDY DURATION: 105-106 WK), Dose: 0, 6700, 12100 PPM IN DIET FOR 78 WK (STUDY DURATION: 105-106 WK), Tumor Site: Type of Lesion: BRAIN: TUMOR) of the same compound?
**A.** The carcinogen call was “equivocal”.

**Q.** How did the carcinogen call (Species: MOUSE, Strain/Sex: B6C3F1/FEMALE, Route: GAVAGE, Dose: 0, 100, 200 MG/KG IN CORN OIL 5/WK FOR 103 WK, Dose: 0, 100, 200 MG/KG IN CORN OIL 5/WK FOR 103 WK, Tumor Site: Type of Lesion: LUNG: ALVEOLAR/BRONCHIOLAR ADENOMA, CARCINOMA) turn out when `CC(CCl)OC(C)CCl` (configuration not stated) was run?
**A.** Its carcinogen call is “active; positive”.

**Q.** What about the carcinogen call (Species: MOUSE, Strain/Sex: B6C3F1/MALE, Route: GAVAGE, Dose: 0, 100, 200 MG/KG IN CORN OIL 5/WK FOR 103 WK, Dose: 0, 100, 200 MG/KG IN CORN OIL 5/WK FOR 103 WK, Tumor Site: Type of Lesion: LUNG: ALVEOLAR/BRONCHIOLAR ADENOMA, CARCINOMA, LIVER: HEPATOCELLULAR ADENOMA, CARCINOMA) of the same compound?
**A.** Its carcinogen call is “active; positive”.

**Q.** What about the carcinogen call (Species: RAT, Strain/Sex: F344/FEMALE, Route: GAVAGE, Dose: 0, 100, 200 MG/KG IN CORN OIL, Dose: 0, 100, 200 MG/KG IN CORN OIL) of the same compound?
**A.** The carcinogen call was “inactive; negative”.

**Q.** And the carcinogen call (Species: RAT, Strain/Sex: F344/MALE, Route: GAVAGE, Dose: 0, 100, 200 MG/KG IN CORN OIL, Dose: 0, 100, 200 MG/KG IN CORN OIL)?
**A.** Its carcinogen call is “inactive; negative”.
